We go through 81 compounds from the METLIN SMRT retention time set (Domingo-Almenara et al. 2019).

The series can be described thus: gradient 5% acetonitrile 3 min, to 50% in 2 min, to 85% in 15 min, held 3 min, 100 µL/min. Conditions: column: Zorbax Extend-C18 2.1 x 50 mm; eluents: water / acetonitrile, 0.1% formic acid. Summed up:
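Each retention time is based on an adduct peak selected computationally and verified by manual inspection. Measurements used HPLC–quadrupole time-of-flight mass spectrometry in positive and negative ionization mode on mixtures of ~100 pure standards. Chromatography ran on a Zorbax Extend-C18 column (2.1 × 50 mm, 1.8 μm) at 100 μL/min with water and acetonitrile, each containing 0.1% formic acid, and dead and dwell volumes of 40 μL and 900 μL.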
With `CCN1CCCn2cc(S(=O)(=O)Nc3cc(C)cc(C)c3)cc2C1=O`, the RP-LC retention time was 768 s. In the case of `CC(=O)N1c2ccc(S(=O)(=O)N3CCCCC3)cc2CC1C(=O)NCCN1CCCC1` (stereo unspecified), the RP-LC retention time worked out at 592 s. In the case of `CCOC(=O)c1cccc(Nc2c(-c3ccc(C)cc3)nc3cnccn23)c1`, the RP-LC retention time was determined as 941 s. As to `O=C(Nc1cccc(Cl)c1)C1CCN(C(=O)C2Sc3ccccc3NC2=O)CC1` (stereo unspecified), the RP-LC retention time was 837 s.

Compound `O=C(NCCc1cccnc1)c1cn(-c2cc(N3CCOCC3)ncn2)cn1` had an RP-LC retention time of 565 s.

`COc1ccc(-c2nc3cccnc3n2C2CCN(C(=O)c3ccc4c(c3)OCO4)C2)cc1` (stereo unspecified) yielded an RP-LC retention time of 716 s. Regarding `CC(=O)NCc1nc2ccccc2n1CC(=O)Nc1ccccc1C`, the RP-LC retention time amounted to 617 s. `CCCN1CCN(c2ncc3c(n2)CCN(Cc2cccc(Br)c2)C3)CC1` returned an RP-LC retention time of 565 s.

The compound `CCN1CCN(C(=O)c2nc(N3CCSCC3)c3cnn(C)c3n2)CC1` returned an RP-LC retention time of 604 s. The figure for `Cc1nc(-c2csc(S(=O)(=O)N3CCC(C(=O)N4CCC5(CC4)OCCO5)CC3)c2)no1` is 765 s. The figure for `Cc1ccc(NC(=O)NCCc2cn(CC(C)C)c3ncccc23)cc1Cl` is 941 s. The figure for `CS(=O)(=O)c1ccc2nc(Nc3nc4cc5c(cc4s3)OCO5)sc2c1` is 786 s; for `COc1ccc(NC(=O)C2CCN(c3cnc4nccnc4c3)CC2)cc1Cl` it is 712 s; for `O=C(Nc1cccc(F)c1)[C@@H]1OCCN(C2CC2)[C@H]1c1ccccc1` it is 675 s. Turning to `Cc1cc(NC(=O)c2ccccc2)c(Cl)cc1N`, the RP-LC retention time came out at 797 s. Consider `COc1cc(OC)cc(C(=O)N2C[C@@H]3C[C@H](NC(=O)c4ccccc4)[C@H]2C3)c1`, for which the RP-LC retention time was 684 s. The figure for `CCOC(=O)c1c(C)[nH]c(CCC(=O)NC2CCCCC2)c1C` is 823 s. The figure for `Cc1ccc(-c2cc3n(n2)CCCN(C(=O)C2CCOC2)C3)cc1` (stereo unspecified) is 712 s. Consider `Cc1c(Cl)cccc1NC(=O)Cn1nc2c3cc(F)ccc3ncn2c1=O`, for which the RP-LC retention time was 677 s.

As for `Cc1ccccc1Cc1nc(-c2ccnc(N3CCOCC3)c2)no1`, the RP-LC retention time worked out at 908 s.

`Cn1nc(-c2ccccc2)cc1C(=O)NCCn1nc(-c2ccc(Cl)cc2)ccc1=O` yielded an RP-LC retention time of 836 s. The figure for `Cc1ccc(NC(=O)Nc2cnn(-c3ncncc3N3CCOCC3)c2)cc1C` is 674 s; for `CCOc1ccccc1NC(=O)N1CCCC(C)(C(=O)NCc2cccc(OC)c2)C1` (stereo unspecified) it is 958 s; for `CCOC(=O)C1CCC(CNC(=O)Nc2ccc3nc(N4CCN(C)CC4)cc(C)c3c2)CC1` (stereo unspecified) it is 584 s.

The compound `CN(CC1CCOCC1)C(=O)Nc1ccccc1C(F)(F)F` gave an RP-LC retention time of 738 s. The figure for `Cc1ccc(CNC(=O)Cn2ccc3sccc3c2=O)cc1` is 740 s; for `O=C(Cn1cc(Cl)cn1)N1CCCC1c1cccc(F)c1` (stereo unspecified) it is 836 s. The figure for `CCn1cc(CCN2CCC(C(=O)NC(C)C)CC2)c2cccnc21` is 567 s. For `COCCNC(=O)Cc1ccc(NC(=O)c2ccc(C(C)(C)C)cc2)cc1`, the RP-LC retention time turned out to be 790 s. `Cc1sc(-c2noc(C3CC3)n2)cc1S(=O)(=O)N1CCC(C(=O)NCc2cccs2)CC1`: the RP-LC retention time is 983 s.

Compound `CC(C)c1c(C(=O)O)nnn1Cc1ccccc1` yielded an RP-LC retention time of 720 s. The figure for `O=C1CN(S(=O)(=O)c2ccc(F)c(Cl)c2)CC2(CCCCC2)N1C1CCCC1` is 1240 s; for `CC(C)CNC(=O)c1ccc(-c2nnc3ccc(NC(=O)C4CC4)cn23)cc1` it is 708 s. `COCCn1cc2c3c(cccc31)CN(C(=O)Nc1cc(Cl)ccc1C)CC2` showed an RP-LC retention time of 679 s.

As to `COc1ccc(OC)c(NC(=O)C(=O)c2cccn2C)c1`, the RP-LC retention time amounted to 1000 s. Regarding `C=CCN=C(NC#N)SC`, the RP-LC retention time was determined as 696 s. Compound `Cn1c(=O)c(N2CCCC(C(=O)NCCc3ccco3)C2)nc2cccnc21` (stereo unspecified) returned an RP-LC retention time of 827 s. `CC(Cc1ccco1)NC(=O)C1CCN(S(=O)(=O)c2ccc3c(c2)sc(=O)n3C)CC1` (stereo unspecified) had an RP-LC retention time of 807 s. The figure for `Cc1cccc(C)c1NC(=O)Cn1ncc2c(c1=O)N(CC1CC1)C(=O)CS2` is 784 s; for `CN1C(=O)c2cc(C(=O)Nc3ccccc3Br)nn2CC1(C)C(=O)NC1CCCCC1` (stereo unspecified) it is 807 s; for `CCc1sc(N)nc1-c1ccc(OC)cc1` it is 668 s. `COc1cc(NC(=O)COc2ccc(-c3nnc4n3CCCC4)cc2)cc(OC)c1OC` displayed an RP-LC retention time of 646 s. As to `COc1cccc(C(=O)Nc2nc3c(s2)CN(Cc2ccccc2)CC3)c1OC`, the RP-LC retention time amounted to 585 s. The figure for `COC(=O)c1ccccc1NC(=O)c1ccc(F)cc1` is 1060 s. The figure for `COc1ccc(-c2noc(C3(NC(=O)c4cccc(C#N)c4)CCCCC3)n2)cc1` is 1110 s. The figure for `CCn1cc(-c2nc(CC(=O)NCc3ccc(C)cc3)cs2)c2cccnc21` is 912 s. `CC(C)Cn1c(=O)c2cc(C(=O)NC(C)c3ccco3)nn2c2ccccc21` (stereo unspecified): the RP-LC retention time stood at 1030 s. The figure for `CCOCCCNC(=O)c1ccc2c(c1)NC(=O)C1CCCCN21` (stereo unspecified) is 686 s; for `CN(C)C(=O)c1cc2c(s1)CCC(C(=O)N1CCN(C3CCCC3)CC1)C2` (stereo unspecified) it is 573 s; for `CCc1noc(-c2ccnc(-n3cnc(C(=O)NCC(C)C)c3)c2)n1` it is 983 s. The figure for `CCC(=O)Nc1ccc(CCc2nc3ccc(C(=O)NCCOC)cc3[nH]2)cc1` is 567 s; for `Cc1cccc(N(C(=O)c2cnc3n(c2=O)CCS3)C2CCCCC2)c1` it is 782 s. `COCCN1CC(CO)C2(CCN(Cc3ccc(Cl)c(F)c3)CC2)C1` (stereo unspecified): the RP-LC retention time worked out at 555 s. The figure for `COc1ccc(-c2cn3ccn(-c4ccc(F)c(Cl)c4)c(=O)c3n2)cc1` is 862 s; for `CCC(=O)N1c2ccc(S(=O)(=O)N3CCCCC3)cc2CC1C(=O)NCCCc1ccccc1` (stereo unspecified) it is 977 s.

`CCCNC(=O)CC1CCN(C(=O)c2[nH]c(C)c(C)c2C)CC1` had an RP-LC retention time of 698 s. As for `COC(=O)c1ccc(NC(=O)Cn2c(C)nc3c(sc4nc(-c5ccccc5)ccc43)c2=O)cc1`, the RP-LC retention time amounted to 1020 s.

With `CC1CCN(S(=O)(=O)c2ccc3c(c2)-c2oncc2CO3)CC1`, the RP-LC retention time was 673 s.

Consider `Cc1noc(C2CN(C(=O)Nc3c(C)cccc3C)CC23CCOCC3)n1` (stereo unspecified), for which the RP-LC retention time was found to be 693 s. In turn, `Cc1nn(-c2nc(-c3ccc(F)cc3)cs2)c(C)c1CC(=O)Nc1ccc(F)cc1` returned an RP-LC retention time of 1150 s.

Compound `CCCc1cc(N2CCN(C(=O)c3cccc(N(C)C)c3)CC2)nc2nnc(C)n12` gave an RP-LC retention time of 606 s. For `O=c1ccc(N2CCCN(S(=O)(=O)c3ccccc3F)CC2)nn1-c1ccccc1`, the RP-LC retention time stood at 820 s. The figure for `COc1ccc(CCNC(=O)CSc2ncnc3c2nnn3C)cc1OC` is 628 s. The figure for `COC(=O)c1c(C)[nH]c(C(=O)N2CCC(CC(=O)NCc3cccc(OC)c3)CC2)c1C` is 715 s; for `O=C(Cn1c(=O)oc2ccccc21)NCC1CCN(C(=O)c2ccccc2F)CC1` it is 671 s. The figure for `O=C(c1cccs1)N1CCC(n2c(C3CCCC3)nc3cccnc32)C1` (stereo unspecified) is 653 s; for `Nc1ccc(-c2nc3ccccc3s2)cc1` it is 803 s.

The compound `NS(=O)(=O)c1ccc(CCNCc2ccc(-c3ccc(F)cc3)o2)cc1` returned an RP-LC retention time of 643 s. In the case of `Cn1cc(C(=O)N2CCCC(c3nnc4n3CCN(C3CCCC3)C4)C2)cn1` (stereo unspecified), the RP-LC retention time was 553 s. Regarding `Cc1ccc(-n2nnc(C(=O)O)c2-c2ccccn2)c(F)c1`, the RP-LC retention time was 697 s. Regarding `CCCNC(=O)CCC1CCN(S(=O)(=O)c2ccccc2)CC1`, the RP-LC retention time amounted to 784 s. The figure for `Cc1nnc(-c2cc(NS(C)(=O)=O)c(C)s2)o1` is 697 s.

Consider `COCCCNC(=O)CCC[C@@H]1[C@H]2CCCN3CCC[C@@H](CN1C)[C@@H]23`, for which the RP-LC retention time worked out at 709 s. Take `CCn1cnc(S(=O)(=O)N2CCC(C(=O)Nc3nc4ccc(OC)cc4s3)CC2)c1`: the RP-LC retention time was determined as 748 s. The figure for `Cc1ccc2c(Nc3ccc(C(C)C)cc3)c(C(=O)N3CCCCC3C)cnc2n1` (stereo unspecified) is 737 s; for `Oc1ccc2c3c1O[C@H]1c4[nH]c5ccccc5c4C[C@@]4(O)C(C2)N(CC2CC2)CCC314` (stereo partly specified) it is 692 s. `O=C(NCc1ccc(N2CCOCC2)cc1)c1cn2nc(Cl)ccc2n1` displayed an RP-LC retention time of 656 s. The figure for `Cc1ccccc1C(=O)Nc1nc(-c2ccc3c(c2)N(C)C(=O)CO3)cs1` is 939 s; for `CCCn1cc(CCNC(=O)Nc2cccc(Cl)c2C)c2cccnc21` it is 889 s; for `O=C(NCCc1ccccc1)c1nnc(-c2ccc(S(=O)(=O)N3CCCCC3)cc2)o1` it is 1040 s. The figure for `CC(C)OCCCNC(=O)c1cn(C)cc2c(=O)n(-c3ccccc3)nc1-2` is 851 s.
